Reference: ChEMBL document CHEMBL1201862, “PubChem BioAssay data set” (2004)
Where “and” joins values, the source holds several entries; their conditions need not be identical. Equal entries are not always repeated.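 1) Cells in 96-well plates. 2) Compound, 48 h, 5 concentrations. 3) Linear interpolation between surrounding doses. 4) Unreached endpoint = highest concentration. GI50 = concentration required for 50% inhibition of growth.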 Calls of active or inactive are those of the source. No stated cut-off is given here; in the data, active = GI50 up to about 1.1 µM and inactive = higher. Non-standard residues stand in square brackets, D forms with d. Residues, ends and D or L forms follow the SMILES beside them. ξ: configuration not given here. *: point of attachment. ξF = NC(Cc1ccccc1)C(=O)O; Cbz = O=C(OCc1ccccc1)*; Aib = CC(C)(N)C(=O)O

Key:
Assay in all cases: inhibition of tumour cell growth, NCI panel, 48 h
NCI-H226 = test system: NCI-H226
HCT-15 = test system: HCT-15
SK-OV-3 = test system: SK-OV-3
OVCAR-3 = test system: OVCAR-3
NCI/ADR-RES = test system: NCI/ADR-RES
MOLT-4 = test system: MOLT-4
MCF7 = test system: MCF7
DMS-114 = test system: DMS-114
A498 = test system: A498
KM-20L2 = test system: KM-20L2
OVCAR-5 = test system: OVCAR-5
MDA-MB-231 = test system: MDA-MB-231
Hs-578T = test system: Hs-578T
PC-3 = test system: PC-3
DU-145 = test system: DU-145
MDA-MB-435 = test system: MDA-MB-435
MDA-N = test system: MDA-N
T47D = test system: T47D
SR = test system: SR
786-0 = test system: 786-0

| SMILES | GI50 (NCI-H226) | GI50 (HCT-15) [µM] | GI50 (SK-OV-3) | GI50 (OVCAR-3) | GI50 (NCI/ADR-RES) | GI50 (MOLT-4) | GI50 (MCF7) | GI50 (DMS-114) | GI50 (A498) | GI50 (KM-20L2) | GI50 (OVCAR-5) | GI50 (MDA-MB-231) | GI50 (Hs-578T) | GI50 (PC-3) | GI50 (DU-145) | GI50 (MDA-MB-435) | GI50 (MDA-N) | GI50 (T47D) | GI50 (SR) | GI50 (786-0) |
| --- | --- | --- | --- | --- | --- | --- | --- | --- | --- | --- | --- | --- | --- | --- | --- | --- | --- | --- | --- | --- |
| Nc1ccn(C2OC(COP(=O)(O)Oc3ccccc3)C(O)C2O)c(=O)n1 (stereo unspecified) | > 100 µM (inactive) | > 60 | > 100 µM (inactive) | > 100 µM (inactive) | 16.7 µM (inactive) | 0.979 µM (active) | 13 µM (inactive) | 13.7 µM (inactive) | 4.06 µM (inactive) | > 39.7 µM (inactive) | > 100 µM (inactive) | – | – | – | – | – | – | – | – | – |
| COc1ccc(N2NC(c3ccccc3)(c3ccccc3)C(C)C2=O)cc1 (stereo unspecified) | 49.8 µM (inactive) | 39.5 | – | > 100 µM (inactive) | 48.2 µM (inactive) | 49.2 µM (inactive) | 25.5 µM (inactive) | – | > 100 µM (inactive) | – | 56.2 µM (inactive) | 52.1 µM (inactive) | 67.5 µM (inactive) | 30.3 µM (inactive) | > 100 µM (inactive) | 57.3 µM (inactive) | 39.1 µM (inactive) | 39 µM (inactive) | 96.6 µM (inactive) | – |
| O=C(Nc1nnc(S)[nH]1)C(=O)C(c1cnc2ccc([N+](=O)[O-])cc2n1)[N+](=O)[O-] (stereo unspecified) | > 100 µM (inactive) | 72.9 | > 100 µM (inactive) | > 100 µM (inactive) | – | > 100 µM (inactive) | – | 47 µM (inactive) | > 100 µM (inactive) | 81.3 µM (inactive) | > 100 µM (inactive) | – | – | – | – | – | – | – | > 100 µM (inactive) | > 100 µM (inactive) |
| c1cc(CNC2C3CCC(C3)C2c2c[nH]c3ccccc23)cc(CNC2C3CCC(C3)C2c2c[nH]c3ccccc23)c1 (stereo unspecified) | 2 µM (inactive) and 2.07 µM (inactive) | – | 1.85 µM (inactive) and 1.8 µM (inactive) | 1.76 µM (inactive) and 1.71 µM (inactive) | – | – | 0.205 µM (active) | – | – | – | 1.84 µM (inactive) and 1.82 µM (inactive) | 1.59 µM (inactive) and 1.51 µM (inactive) | 1.43 µM (inactive) and 1.62 µM (inactive) | 1.6 µM (inactive) and 1.64 µM (inactive) | 1.57 µM (inactive) and 1.3 µM (inactive) | 658 nM (active) and 637 nM (active) | – | 1.75 µM (inactive) and 1.74 µM (inactive) | 258 nM (active) and 186 nM (active) | – |
| Oc1ccc(Br)cc1/C=N/C1CCCCC1 | – | 5.56 | 55.3 µM (inactive) | 13.1 µM (inactive) | 38.7 µM (inactive) | 18.8 µM (inactive) | 14.6 µM (inactive) | – | > 100 µM (inactive) | – | > 100 µM (inactive) | 36.3 µM (inactive) | 37.7 µM (inactive) | 15.2 µM (inactive) | 21.4 µM (inactive) | 28.2 µM (inactive) | 34.8 µM (inactive) | 4.12 µM (inactive) | – | 22.9 µM (inactive) |
| C[n+]1cccc2c(=O)c3ccccc3oc21 | > 100 µM (inactive) | > 100 | > 100 µM (inactive) | > 100 µM (inactive) | > 100 µM (inactive) | – | > 100 µM (inactive) | – | > 100 µM (inactive) | – | > 100 µM (inactive) | > 100 µM (inactive) | > 100 µM (inactive) | > 100 µM (inactive) | > 100 µM (inactive) | > 100 µM (inactive) | > 100 µM (inactive) | > 100 µM (inactive) | > 100 µM (inactive) | – |
| C=CCCCC12CCCc3cccc(c31)NC2=O (stereo unspecified) | 20.6 µM (inactive) | – | 19.7 µM (inactive) | 18 µM (inactive) | – | 18.8 µM (inactive) | – | 17.3 µM (inactive) | 19.6 µM (inactive) | 21.2 µM (inactive) | 19.3 µM (inactive) | – | – | – | – | – | – | – | 20.8 µM (inactive) | – |
| COc1ccc(-n2cnnc2-c2nsc3ccccc23)cc1 | – | 51.6 | – | 51.4 µM (inactive) | – | > 100 µM (inactive) | – | > 100 µM (inactive) | – | > 100 µM (inactive) | > 100 µM (inactive) | – | – | – | – | – | – | – | > 100 µM (inactive) | – |
| CC1(C)Cc2nnsc2C2=C1C(=O)CCS2 | – | > 100 | > 100 µM (inactive) | > 100 µM (inactive) | – | > 100 µM (inactive) | – | > 100 µM (inactive) | – | > 100 µM (inactive) | > 100 µM (inactive) | – | – | – | – | – | – | – | – | > 100 µM (inactive) |
| CCC(/C(=N/NC(=O)C[N+](C)(C)C)c1ccccc1)C1OC(=O)c2ccccc21 (stereo unspecified) | > 100 µM (inactive) | > 100 | > 100 µM (inactive) | > 100 µM (inactive) | – | > 100 µM (inactive) | – | > 100 µM (inactive) | – | > 100 µM (inactive) | > 100 µM (inactive) | – | – | – | – | – | – | – | > 100 µM (inactive) | > 100 µM (inactive) |
| CCN(CC)CCn1c(=O)c2c(C)c3oc4ccccc4oc3c(C)c2c1=O | > 100 µM (inactive) | > 100 | > 100 µM (inactive) | – | > 100 µM (inactive) | > 100 µM (inactive) | > 100 µM (inactive) | – | > 100 µM (inactive) | – | > 100 µM (inactive) | > 100 µM (inactive) | > 100 µM (inactive) | > 100 µM (inactive) | – | > 100 µM (inactive) | > 100 µM (inactive) | – | – | 48.2 µM (inactive) |
| O=C1c2[nH]c3ccc(Br)cc3c2CCN1Cc1ccc(Cl)cc1 | – | 3.99 | – | 15.2 µM (inactive) | 17.2 µM (inactive) | – | 16.6 µM (inactive) | – | 17.1 µM (inactive) | – | 12.5 µM (inactive) | 11.9 µM (inactive) | 17.1 µM (inactive) | 4.74 µM (inactive) | 14.2 µM (inactive) | 14.4 µM (inactive) | 14.7 µM (inactive) | 13.4 µM (inactive) | 8.79 µM (inactive) | 11.3 µM (inactive) |
| CN(C)C(=S)N/N=C(\C(=N/NC(=S)N(C)C)c1ccccn1)c1ccccn1 | 12.6 µM (inactive) | 6.81 | 14.4 µM (inactive) | 3.85 µM (inactive) | 20.7 µM (inactive) | – | 1.66 µM (inactive) | – | 14.8 µM (inactive) | – | 14 µM (inactive) | 14.7 µM (inactive) | 1.01 µM (active) | 4.26 µM (inactive) | 4.21 µM (inactive) | 10.1 µM (inactive) | 11.2 µM (inactive) | 3.21 µM (inactive) | – | 10.4 µM (inactive) |
| CCOC(=O)CNC(=O)C(Cc1ccccc1)NC(=O)C(C)(C)NC(=O)OCc1ccccc1 (stereo unspecified) (Cbz-[Aib]-[ξF]-Gly-OEt) | – | > 100 | – | 21.5 µM (inactive) | > 100 µM (inactive) | 29.4 µM (inactive) | > 100 µM (inactive) | – | > 100 µM (inactive) | – | > 100 µM (inactive) | > 100 µM (inactive) | – | > 100 µM (inactive) | 28.6 µM (inactive) | 67.3 µM (inactive) | > 100 µM (inactive) | 77.8 µM (inactive) | 30.3 µM (inactive) | – |
| COC1=CC(=O)c2c(c(O)c3oc4cc(OC)cc(C)c4c(=O)c3c2O)C1=O [BIKAVERIN] | 0.159 µM (active) | 1.21 | 1.56 µM (inactive) | 0.809 µM (active) | 0.881 µM (active) | 0.671 µM (active) | 1.69 µM (inactive) | 0.462 µM (active) | 1.37 µM (inactive) | 5.94 µM (inactive) | 1.97 µM (inactive) | – | – | – | – | – | – | – | – | – |
